From ChEMBL document CHEMBL1138949, “Bromine- and iodine-substituted 16alpha,17alpha-dioxolane progestins for breast tumor imaging and radiotherapy: synthesis and receptor binding affinity” (J Med Chem, 2006)

What was measured:
[1] = target: T1, Progesterone receptor (Homo sapiens) (UniProt P06401); assay: Inhibition of [3H]R5020 binding to human recombinant progesterone receptor relative to R5020
T1 sequence (whole entry): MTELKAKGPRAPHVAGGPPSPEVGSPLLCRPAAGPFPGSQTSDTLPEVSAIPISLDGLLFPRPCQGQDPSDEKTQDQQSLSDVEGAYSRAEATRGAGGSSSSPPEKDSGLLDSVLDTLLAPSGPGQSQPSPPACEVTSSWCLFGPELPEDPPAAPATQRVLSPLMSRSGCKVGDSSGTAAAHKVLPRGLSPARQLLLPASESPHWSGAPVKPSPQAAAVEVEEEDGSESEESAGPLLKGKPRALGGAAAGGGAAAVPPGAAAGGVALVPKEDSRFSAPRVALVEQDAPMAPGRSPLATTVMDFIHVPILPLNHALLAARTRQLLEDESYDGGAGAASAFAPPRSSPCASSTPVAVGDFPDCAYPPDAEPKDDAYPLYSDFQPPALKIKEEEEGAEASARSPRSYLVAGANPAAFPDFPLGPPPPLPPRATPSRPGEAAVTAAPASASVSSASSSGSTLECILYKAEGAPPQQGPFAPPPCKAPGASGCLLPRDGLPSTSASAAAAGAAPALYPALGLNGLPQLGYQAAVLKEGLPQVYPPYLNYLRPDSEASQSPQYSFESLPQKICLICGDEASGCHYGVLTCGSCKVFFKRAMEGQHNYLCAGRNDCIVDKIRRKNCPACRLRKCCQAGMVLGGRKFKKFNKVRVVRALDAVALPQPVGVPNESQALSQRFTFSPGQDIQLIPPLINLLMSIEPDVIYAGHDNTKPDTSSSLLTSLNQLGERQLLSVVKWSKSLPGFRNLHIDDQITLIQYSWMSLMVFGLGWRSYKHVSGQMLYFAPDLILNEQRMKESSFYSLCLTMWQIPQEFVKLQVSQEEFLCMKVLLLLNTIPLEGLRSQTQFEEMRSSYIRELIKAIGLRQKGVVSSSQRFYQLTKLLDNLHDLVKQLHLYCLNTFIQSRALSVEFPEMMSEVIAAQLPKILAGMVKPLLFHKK

[2] = target: T2, Progesterone receptor (Rattus norvegicus) (UniProt Q63449); assay: Inhibition of [3H]R5020 binding to rat uterine progesterone receptor relative to R5020
T2 sequence (whole entry): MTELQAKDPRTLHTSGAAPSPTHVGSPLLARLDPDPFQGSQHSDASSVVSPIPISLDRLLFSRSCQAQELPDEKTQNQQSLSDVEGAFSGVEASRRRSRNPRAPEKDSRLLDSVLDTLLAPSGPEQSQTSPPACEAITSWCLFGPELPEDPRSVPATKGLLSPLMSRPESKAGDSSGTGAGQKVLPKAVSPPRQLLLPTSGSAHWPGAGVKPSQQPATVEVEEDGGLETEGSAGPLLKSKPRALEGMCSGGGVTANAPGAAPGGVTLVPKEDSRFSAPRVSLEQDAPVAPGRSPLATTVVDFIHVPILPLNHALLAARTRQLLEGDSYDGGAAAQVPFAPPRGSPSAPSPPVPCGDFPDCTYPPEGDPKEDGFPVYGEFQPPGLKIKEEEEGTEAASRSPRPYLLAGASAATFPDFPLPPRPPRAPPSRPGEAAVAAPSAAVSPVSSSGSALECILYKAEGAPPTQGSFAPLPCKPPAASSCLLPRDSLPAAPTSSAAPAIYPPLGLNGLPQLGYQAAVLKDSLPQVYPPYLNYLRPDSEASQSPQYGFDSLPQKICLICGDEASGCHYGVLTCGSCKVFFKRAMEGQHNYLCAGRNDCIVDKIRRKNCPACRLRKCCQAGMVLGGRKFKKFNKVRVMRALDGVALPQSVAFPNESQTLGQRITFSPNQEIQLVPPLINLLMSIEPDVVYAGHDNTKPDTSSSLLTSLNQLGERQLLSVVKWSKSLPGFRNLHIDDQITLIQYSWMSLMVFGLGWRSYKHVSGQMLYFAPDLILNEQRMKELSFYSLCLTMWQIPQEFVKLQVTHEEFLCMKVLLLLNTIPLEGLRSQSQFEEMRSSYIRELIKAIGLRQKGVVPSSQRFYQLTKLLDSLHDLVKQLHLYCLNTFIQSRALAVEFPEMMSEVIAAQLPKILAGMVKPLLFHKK

relative binding affinity (RBA) [1]	relative binding affinity (RBA) [2]	SMILES
23	–	C[C@]12CC[C@H]3[C@@H](CCC4=CC(=O)CC[C@@H]43)[C@@H]1C[C@H]1O[C@@H](c3ccc(I)o3)O[C@]12C(=O)CO
4.7	–	C[C@]12CC[C@H]3[C@@H](CCC4=CC(=O)CC[C@@H]43)[C@@H]1C[C@H]1O[C@H](c3ccc(Br)cc3)O[C@]12C(=O)CF
1.4	–	CC(=O)CC(=O)[C@@]12O[C@@H](c3ccc(Br)o3)O[C@@H]1C[C@H]1[C@@H]3CCC4=CC(=O)CC[C@@H]4[C@H]3CC[C@@]12C
2.4	2.5	C[C@]12CC[C@H]3[C@@H](CCC4=CC(=O)CC[C@@H]43)[C@@H]1C[C@H]1O[C@H](c3ccco3)O[C@]12C(=O)CO
6.4	–	C[C@]12CC[C@H]3[C@@H](CCC4=CC(=O)CC[C@@H]43)[C@@H]1C[C@H]1O[C@@H](c3ccc(I)cc3)O[C@]12C(=O)CF
0.81	–	C[C@]12CC[C@H]3[C@@H](CCC4=CC(=O)CC[C@@H]43)[C@@H]1C[C@H]1O[C@@H](c3ccc(I)cc3)O[C@]12C(=O)CO
53	55	C[C@]12CC[C@H]3[C@@H](CCC4=CC(=O)CC[C@@H]43)[C@@H]1C[C@H]1O[C@@H](c3ccco3)O[C@]12C(=O)CO
0.41	–	C[C@]12CC[C@H]3[C@@H](CCC4=CC(=O)CC[C@@H]43)[C@@H]1C[C@H]1O[C@H](c3ccc(Br)cc3)O[C@]12C(=O)CO
23	–	C[C@]12CC[C@H]3[C@@H](CCC4=CC(=O)CC[C@@H]43)[C@@H]1C[C@H]1O[C@@H](c3ccc(Br)cc3)O[C@]12C(=O)CO
24	–	C[C@]12CC[C@H]3[C@@H](CCC4=CC(=O)CC[C@@H]43)[C@@H]1C[C@H]1O[C@@H](c3ccc(Br)o3)O[C@]12C(=O)CF
3.2	–	C[C@]12CC[C@H]3[C@@H](CCC4=CC(=O)CC[C@@H]43)[C@@H]1C[C@H]1O[C@@H](c3ccc(I)s3)O[C@]12C(=O)CO
0.95	–	C[C@]12CC[C@H]3[C@@H](CCC4=CC(=O)CC[C@@H]43)[C@@H]1C[C@H]1O[C@H](c3ccc(I)s3)O[C@]12C(=O)CO
1.8	–	C[C@]12CC[C@H]3[C@@H](CCC4=CC(=O)CC[C@@H]43)[C@@H]1C[C@H]1O[C@H](c3ccc(I)cc3)O[C@]12C(=O)CO
65	–	C[C@]12CC[C@H]3[C@@H](CCC4=CC(=O)CC[C@@H]43)[C@@H]1C[C@H]1O[C@@H](c3ccc(Br)o3)O[C@]12C(=O)CO
180	190	C[C@]12CC[C@H]3[C@@H](CCC4=CC(=O)CC[C@@H]43)[C@@H]1C[C@H]1O[C@@H](c3ccco3)O[C@]12C(=O)CF
1.7	–	C[C@]12CC[C@H]3[C@@H](CCC4=CC(=O)CC[C@@H]43)[C@@H]1C[C@H]1O[C@H](c3ccc(Br)s3)O[C@]12C(=O)CO
5.2	–	C[C@]12CC[C@H]3[C@@H](CCC4=CC(=O)CC[C@@H]43)[C@@H]1C[C@H]1O[C@@H](c3ccc(Br)s3)O[C@]12C(=O)CO
7.1	–	CC(=O)CC(=O)[C@@]12O[C@H](c3ccc(Br)o3)O[C@@H]1C[C@H]1[C@@H]3CCC4=CC(=O)CC[C@@H]4[C@H]3CC[C@@]12C
5	11	C[C@]12CC[C@H]3[C@@H](CCC4=CC(=O)CC[C@@H]43)[C@@H]1C[C@H]1O[C@H](c3ccco3)O[C@]12C(=O)CF
3.9	–	C[C@]12CC[C@H]3[C@@H](CCC4=CC(=O)CC[C@@H]43)[C@@H]1C[C@H]1O[C@@H](c3ccc(Br)cc3)O[C@]12C(=O)CF
4.4	–	C[C@]12CC[C@H]3[C@@H](CCC4=CC(=O)CC[C@@H]43)[C@@H]1C[C@H]1O[C@H](c3ccc(Br)o3)O[C@]12C(=O)CF
40	–	C[C@]12CC[C@H]3[C@@H](CCC4=CC(=O)CC[C@@H]43)[C@@H]1C[C@H]1O[C@@H](c3ccc(I)o3)O[C@]12C(=O)CF
9	–	C[C@]12CC[C@H]3[C@@H](CCC4=CC(=O)CC[C@@H]43)[C@@H]1C[C@H]1O[C@H](c3ccc(I)o3)O[C@]12C(=O)CF
2.3	–	C[C@]12CC[C@H]3[C@@H](CCC4=CC(=O)CC[C@@H]43)[C@@H]1C[C@H]1O[C@H](c3ccc(Br)o3)O[C@]12C(=O)CO
2.6	–	C[C@]12CC[C@H]3[C@@H](CCC4=CC(=O)CC[C@@H]43)[C@@H]1C[C@H]1O[C@H](c3ccc(I)o3)O[C@]12C(=O)CO
34	–	C[C@]12CC[C@H]3[C@@H](CCC4=CC(=O)CC[C@@H]43)[C@@H]1C[C@H]1O[C@H](c3ccc(I)cc3)O[C@]12C(=O)CF
